Experimental data taken from patent US20060234906A1, “Structure of a complex of retinoblastoma protein bound to e2f, and uses thereof” (priority 2002, published 2006).
Residues, ends and D or L forms follow the SMILES beside them. *: point of attachment. 5FAM = O=C1OC2(c3ccc(O)cc3Oc3cc(O)ccc32)c2ccc(C(=O)*)cc21

Assays:
pRb/Fl-E2F = biological target: T1, pRb/Fl-E2F (Homo sapiens, UniProt P06400); test: Fluorescence polarization displacement binding, Fl-E2F bound to pRb; conditions: fluoro-tagged peptide 400 nM pre-incubated with pRb 1 μM
T1 sequence (P06400 373-771 limits assumed): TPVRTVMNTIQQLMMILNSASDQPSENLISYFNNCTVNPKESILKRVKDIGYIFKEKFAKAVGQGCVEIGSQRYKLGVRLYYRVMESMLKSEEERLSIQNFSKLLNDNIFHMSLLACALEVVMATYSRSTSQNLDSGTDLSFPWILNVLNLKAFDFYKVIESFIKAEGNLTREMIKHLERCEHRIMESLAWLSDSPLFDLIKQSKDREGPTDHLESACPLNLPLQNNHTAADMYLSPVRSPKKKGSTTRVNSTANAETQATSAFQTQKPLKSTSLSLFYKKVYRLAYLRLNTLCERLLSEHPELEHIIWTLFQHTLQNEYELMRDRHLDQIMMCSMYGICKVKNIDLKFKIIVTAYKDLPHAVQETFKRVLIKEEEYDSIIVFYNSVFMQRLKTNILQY
Description: (§1) Fluoro-tagged peptide (400 nM) was pre-incubated with pRb (1 μM ) and unlabelled peptide added at the concentrations shown. Displacement binding curves were plotted (FIG. 4a), and were fitted to a one site competition binding model using Graphpad prism curve fitting software.

pRb/Fl-E7 = biological target: T2, pRb/Fl-E7 (Homo sapiens, UniProt P06400); test: Fluorescence polarization displacement binding, Fl-E7 bound to pRb; conditions: fluoro-tagged peptide 400 nM pre-incubated with pRb 1 μM
T2 sequence (P06400 373-771 limits assumed): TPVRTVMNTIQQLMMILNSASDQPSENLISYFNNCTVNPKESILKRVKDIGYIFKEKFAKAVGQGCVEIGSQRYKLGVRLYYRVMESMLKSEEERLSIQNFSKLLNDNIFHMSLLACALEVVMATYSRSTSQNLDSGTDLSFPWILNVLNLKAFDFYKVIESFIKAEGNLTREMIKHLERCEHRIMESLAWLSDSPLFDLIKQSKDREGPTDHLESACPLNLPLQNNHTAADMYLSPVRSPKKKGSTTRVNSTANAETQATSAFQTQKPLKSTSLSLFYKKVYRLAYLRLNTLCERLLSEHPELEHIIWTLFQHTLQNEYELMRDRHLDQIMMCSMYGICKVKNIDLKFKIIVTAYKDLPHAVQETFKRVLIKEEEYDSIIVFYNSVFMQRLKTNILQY
Description: as §1

RbAB = biological target: T3, RbAB (Homo sapiens, UniProt P06400); test: RbAB
T3 construct: residues 372 to 589 of the A domain and 636 to 787 of the B domain; GST (with Prescission protease site) (N, cleaved yes); engineered thrombin site (LVPRGS) at the A-domain end of the A-B linker (C, cleaved yes); engineered thrombin site (LVPRGS) at the B-domain end of the A-B linker (N, cleaved yes); made in house; host or cells: E. coli
T3 sequence (P06400 2-928 limits assumed): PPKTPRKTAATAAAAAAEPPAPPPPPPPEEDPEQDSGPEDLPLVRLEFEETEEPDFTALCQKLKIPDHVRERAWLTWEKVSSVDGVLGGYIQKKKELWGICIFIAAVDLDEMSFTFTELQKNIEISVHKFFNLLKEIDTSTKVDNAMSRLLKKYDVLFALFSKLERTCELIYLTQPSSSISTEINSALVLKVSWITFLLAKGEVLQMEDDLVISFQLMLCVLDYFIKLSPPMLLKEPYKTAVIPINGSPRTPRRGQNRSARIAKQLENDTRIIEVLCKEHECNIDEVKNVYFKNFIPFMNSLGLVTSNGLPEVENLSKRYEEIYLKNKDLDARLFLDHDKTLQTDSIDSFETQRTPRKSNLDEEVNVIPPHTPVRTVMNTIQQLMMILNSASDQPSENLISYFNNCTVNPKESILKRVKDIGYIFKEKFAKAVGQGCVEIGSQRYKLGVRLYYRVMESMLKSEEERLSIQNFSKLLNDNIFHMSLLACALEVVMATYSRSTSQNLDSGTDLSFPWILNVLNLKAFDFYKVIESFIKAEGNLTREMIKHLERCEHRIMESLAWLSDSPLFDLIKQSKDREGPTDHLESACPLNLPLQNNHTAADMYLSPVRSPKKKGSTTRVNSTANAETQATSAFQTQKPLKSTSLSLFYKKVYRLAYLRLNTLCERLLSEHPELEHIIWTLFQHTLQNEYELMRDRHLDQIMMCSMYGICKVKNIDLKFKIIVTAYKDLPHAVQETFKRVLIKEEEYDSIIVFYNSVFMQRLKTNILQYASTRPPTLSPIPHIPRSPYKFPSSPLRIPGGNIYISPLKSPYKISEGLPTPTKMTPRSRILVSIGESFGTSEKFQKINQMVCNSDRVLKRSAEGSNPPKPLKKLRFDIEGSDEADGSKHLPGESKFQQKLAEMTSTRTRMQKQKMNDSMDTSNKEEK
Text: (§2) Table printed on a drawing sheet, FIG. 2B
(§3) The patent's description of the figure: FIG. 2.
(§4) First copying reader's note: Binding constants of E2F fragments to the Rb constructs RbAB and RbABC; the error is printed in the same cell as the value.
Where the first naming reader finds the target: head: RbAB

pRb [1] = biological target: T4, pRb (Homo sapiens, UniProt P06400); test: Competition experiment (Ni column, SDS-PAGE): E2F(409-426) against E2F(243-437) for binding to pRb; conditions: qualitative competition experiment
T4 construct: His6-RbAB (residues 376-792); made in house
T4 sequence (P06400 376-792): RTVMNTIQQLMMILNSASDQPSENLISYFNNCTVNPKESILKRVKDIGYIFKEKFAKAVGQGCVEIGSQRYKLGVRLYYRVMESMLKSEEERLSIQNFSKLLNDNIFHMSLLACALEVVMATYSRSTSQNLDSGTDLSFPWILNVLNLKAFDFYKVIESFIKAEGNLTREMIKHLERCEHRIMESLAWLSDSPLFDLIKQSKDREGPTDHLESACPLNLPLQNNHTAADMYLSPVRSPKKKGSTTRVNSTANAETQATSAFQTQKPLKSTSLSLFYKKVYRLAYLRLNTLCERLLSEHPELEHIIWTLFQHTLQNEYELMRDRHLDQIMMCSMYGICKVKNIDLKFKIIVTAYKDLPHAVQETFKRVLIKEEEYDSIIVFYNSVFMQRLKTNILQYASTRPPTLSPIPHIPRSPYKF
Text: The proteins used in these experiments were His6-RbABC (RESIDUES 380-929); MW 66.07 kDa, non-tagged RbAB (residues 372-787); MW 48.67 KDa, are His6-RbAB (residues 376-792); MW 49.86 KDa, E2F(243-437); MW 21.45 KDa HPV E7 (residues 17-98); MW 9.38 KDa and E2F(409-426); MW 2.12 KDa. Protein concentrations were carefully determined by u.v. spectroscopy and confirmed by ITC titrations. The small acidic E2F proteins stain much weaker than Rb with Coomassie on SDS-PAGE. For all gel lanes contained a final RbAB concentration of ca. 7 μM. After equilibration with E2F(243-437) and E2F(409-426) the samples were loaded onto a 1.0 ml Ni column and washed with 7×0.5 ml of loading buffer (50 mM Tris pH 7.5, 200 mM NaCl & 10 mM Imidazole). The samples were then eluted with 7×0.5 ml elution buffer (50 mM Tris, pH 7.5, 200 mM NaCl, 200 mM Imidazole). After volume correction samples were boiled in SDS loading buffer and run on a 4-12% SDS PAGE. For the two pRb proteins and E2F(243-437) were mixed at 40 μM in a final volume of 0.5 ml. After equilibration for 2 hrs the mixture was loaded onto 1 ml Ni beads in a small column, washed with 7×0.5 ml of loading buffer (50 mM Tris, pH 7.5, 200 mM NaCl, 10 mM Imidazole), eluted using 7×0.5 ml elution buffer (50 mM Tris, pH 7.5, 200 mM NaCl, 200 mM Imidazole). Samples, after correcting for volume were boiled in SDS sample buffer and run on a 4-12% SDS gel.

RbABC = biological target: T5, RbABC (Homo sapiens, UniProt P06400); test: RbABC
T5 construct: His6-RbABC (RESIDUES 380-929); made in house; host or cells: E. coli
T5 sequence (P06400 2-928 limits assumed): as the sequence (P06400 2-928 limits assumed) above
Text: as §2, §3, §4
Where the first naming reader finds the target: head: RbABC

pRb [2] = biological target: T6, pRb (Homo sapiens, UniProt P06400); test: Fluorescence polarization titration binding of fluoro-labelled peptides with pRb; conditions: pRb titration with fluoro-labelled peptide, one site binding model; read-out: Kd
T6 sequence (P06400 373-771 limits assumed): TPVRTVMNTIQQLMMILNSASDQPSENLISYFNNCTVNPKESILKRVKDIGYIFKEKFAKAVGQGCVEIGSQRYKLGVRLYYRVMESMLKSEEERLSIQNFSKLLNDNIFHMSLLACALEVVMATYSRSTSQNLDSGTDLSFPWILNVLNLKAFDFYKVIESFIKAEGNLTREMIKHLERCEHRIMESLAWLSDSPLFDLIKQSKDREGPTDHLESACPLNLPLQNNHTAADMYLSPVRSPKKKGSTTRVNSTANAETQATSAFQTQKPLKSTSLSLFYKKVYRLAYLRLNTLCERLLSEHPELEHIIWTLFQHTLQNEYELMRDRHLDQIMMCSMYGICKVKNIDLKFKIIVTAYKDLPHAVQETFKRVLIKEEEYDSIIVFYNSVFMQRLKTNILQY
Text: Synthetic peptides were synthesised and fluoro-tagged using either N-terminal labelling with 5 carboxyfluorescein succinimidyl ester or cysteine labelling with single isomer tetramethylrhodamine-5-maleimide. […] Fluorescein fluorescence measured at λexcite=485 and λemit=520 nm
Rhodamine fluorescence measured at λexcite=545 and λemit=580 nm
Measurements were made using BMG Fluorostar plate reader fitted with polarization optic. […] Data were fitted to a one site binding model using Graphpad prism.
pRb titration curves were performed in 96-well black plates, in a total reaction volume of 100 μL. Doubling dilutions from 10 μM stock of pRb were made in binding buffer (50 mM Tris HCl, pH7.0, 100 mM NaCl, 10 mM DTT, 0.05% NP-40) and 80 μL added in triplicate to wells. 20 μL of 2 μM fluoro-peptide was added and pipetted up and down to mix. The plate was read after 1 hr incubation at room temperature.

SMILES | displacement of Fl-E2F from pRb (pRb/Fl-E2F) | displacement of Fl-E7 from pRb (pRb/Fl-E7) | Kd (RbAB) [nM] | molar excess required to 50% compete with E2F(243-437) for binding to pRb (pRb [1]) | Kd (RbABC) [nM] | Kd (pRb [2]) [nM]
CC[C@H](C)[C@H](NC(=O)CNC(=O)[C@H](CCC(=O)O)NC(=O)CNC(=O)[C@H](CCC(=O)O)NC(=O)[C@H](CCC(=O)O)NC(=O)[C@H](CC(C)C)NC(=O)CNC(=O)[C@H](Cc1ccccc1)NC(=O)[C@H](Cc1c[nH]cn1)NC(=O)[C@H](Cc1ccc(O)cc1)NC(=O)[C@H](CC(=O)O)NC(=O)[C@@H](N)CC(C)C)C(=O)N[C@@H](CCCNC(=N)N)C(=O)N[C@@H](CC(=O)O)C(=O)N[C@@H](CC(C)C)C(=O)N[C@@H](Cc1ccccc1)C(=O)N[C@@H](CC(=O)O)C(=O)O [E2F(409-426)] (H-LDYHFGLEEGEGIRDLFD-OH) | displace Fl-E2F | without disrupting F1-E7 binding | 340 ± 20 | 15-to 30 fold | 300 ± 30 | –
CC[C@H](C)[C@H](NC(=O)CNC(=O)[C@H](CCC(=O)O)NC(=O)CNC(=O)[C@H](CCC(=O)O)NC(=O)[C@H](CCC(=O)O)NC(=O)[C@H](CC(C)C)NC(=O)CNC(=O)[C@H](Cc1ccccc1)NC(=O)[C@H](Cc1c[nH]cn1)NC(=O)[C@H](Cc1ccc(O)cc1)NC(=O)[C@H](CC(=O)O)NC(=O)[C@H](CC(C)C)NC(=O)c1ccc2c(c1)C(=O)OC21c2ccc(O)cc2Oc2cc(O)ccc21)C(=O)N[C@@H](CCCNC(=N)N)C(=O)N[C@@H](CC(=O)O)C(=O)N[C@@H](CC(C)C)C(=O)N[C@@H](Cc1ccccc1)C(=O)N[C@@H](CC(=O)O)C(=O)O [Fluorescein-E2F, N-terminal amide link-age 5 carboxyfluorescein-E2F409-426, 18′mer] (5FAM-LDYHFGLEEGEGIRDLFD-OH; C-terminus assumed) | – | does not displace E7 | – | – | – | 450 ± 70
